ChEMBL document CHEMBL5338827, “Evolution and Discovery of Matrine Derivatives as a New Class of Anti-Hepatic Fibrosis Agents Targeting Ewing Sarcoma Breakpoint Region 1 (EWSR1)” (J Med Chem, 2023)
Calls of active or inactive are those of the source. No cut-off for these calls is given here.

Legend:
Rattus norvegicus [1] = assay: Anti-hepatic fibrosis activity in bile duct ligation rat model assessed as reduction in bile TBA level at 100 mg/kg, po administered for 14 days; assay type: functional; details: time 14 day
Rattus norvegicus [2] = assay: Anti-hepatic fibrosis activity in bile duct ligation rat model assessed as reduction in […] level at 100 mg/kg, po administered for 14 days; assay type: functional; details: time 14 day
Rattus norvegicus [3] = assay: Anti-hepatic fibrosis activity in bile duct ligation rat model assessed as reduction in AST level at 100 mg/kg, po administered for 14 days; assay type: functional; details: time 14 day
[4] = target: T1, Collagen alpha-1(I) chain (Homo sapiens, UniProt P02452); assay: Inhibition of COL1A1 (unknown origin) expressed in human LX2 cells at 40 uM measured for 24 hrs relative to control; assay type: cell-based
[5] = target: T1, Collagen alpha-1(I) chain; assay: Inhibition of COL1A1 (unknown origin) expressed in human LX2 cells at 80 uM measured for 24 hrs relative to control; assay type: cell-based
LX-2 [6] = assay: Anti-hepatic fibrosis activity in human LX2 cells assessed as inhibition of TGF-beta1 induced alpha-SMA mRNA expression at 20 uM incubated for 24 hrs by qRT-PCR analysis; assay type: functional, cell-based
LX-2 [7] = assay: Anti-hepatic fibrosis activity in human LX2 cells assessed as inhibition of TGFbeta1-induced MMP-2 protein expression at 20 uM incubated for 24 hrs by western blot analysis; assay type: functional, cell-based
LX-2 [8] = assay: Anti-fibrosis effect in human LX2 cells assessed as reduction in TGFbeta1-induced MMP-2 protein expression at 10 to 20 uM measured for 24 hrs; assay type: functional, cell-based; details: dose 10-20 µM
HSC-T6 [9] = assay: Anti-fibrosis effect in HSC-T6 cells assessed as reduction in TGFbeta1-induced alpha-SMA protein expression measured for 24 hrs; assay type: functional, cell-based; details: Rattus norvegicus, dose 2.5-20 µM
HSC-T6 [10] = assay: Anti-fibrosis effect in HSC-T6 cells assessed as reduction in TGFbeta1-induced fibronectin protein expression measured for 24 hrs; assay type: functional, cell-based; details: Rattus norvegicus, dose 2.5-20 µM
Rattus norvegicus [11] = assay: Anti-hepatic fibrosis activity in bile duct ligation rat model assessed as reduction in parenchyma necrosis at 100 mg/kg, po administered for 14 days by hematoxylin and eosin staining based analysis; assay type: functional, organism-based; details: time 14.0 day
Rattus norvegicus [12] = assay: Anti-hepatic fibrosis activity in bile duct ligation rat model assessed as reduction inflammation score at 100 mg/kg, po administered for 14 days; assay type: functional, organism-based; details: time 14.0 day
Rattus norvegicus [13] = assay: Anti-hepatic fibrosis activity in bile duct ligation rat model assessed as reduction hydroxyproline level at 100 mg/kg, po administered for 14 days; assay type: functional, organism-based; details: time 14.0 day
Rattus norvegicus [14] = assay: Anti-hepatic fibrosis activity in bile duct ligation rat model assessed as reduction in TGFB1 protein expression at 100 mg/kg, po administered for 14 days by Western blot analysis; assay type: functional, organism-based; details: time 14.0 day
Rattus norvegicus [15] = assay: Anti-hepatic fibrosis activity in bile duct ligation rat model assessed as reduction in MMP2 protein expression at 100 mg/kg, po administered for 14 days by Western blot analysis; assay type: functional, organism-based; details: time 14.0 day
Rattus norvegicus [16] = assay: Anti-hepatic fibrosis activity in bile duct ligation rat model assessed as reduction in CTGF protein expression at 100 mg/kg, po administered for 14 days by Western blot analysis; assay type: functional, organism-based; details: time 14.0 day
Rattus norvegicus [17] = assay: Anti-hepatic fibrosis activity in bile duct ligation rat model assessed as reduction in bile duct proliferation at 100 mg/kg, po administered for 14 days by Immunofluorescence analysis; assay type: functional, organism-based; details: time 14.0 day
Mus musculus [18] = assay: Anti-hepatic fibrosis activity in MDR2 knockout liver injury mouse model assessed as reduction in ALT level at 100 mg/kg, po administered once a day for 4 weeks (reference value: 397+/-123.30 U/L); assay type: functional
Mus musculus [19] = assay: Anti-hepatic fibrosis activity in MDR2 knockout liver injury mouse model assessed as reduction in serum TBA level at 100 mg/kg, po administered once a day for 4 weeks (reference value: 59.04+/-22.38 micromol/L); assay type: functional
Mus musculus [20] = assay: Anti-hepatic fibrosis activity in MDR2 knockout liver injury mouse model assessed as reduction in ACTA2 mRNA expression at 100 mg/kg, po administered once a day for 4 weeks by qRT-PCR analysis; assay type: functional, organism-based
Mus musculus [21] = assay: Anti-hepatic fibrosis activity in MDR2 knockout liver injury mouse model assessed as reduction in TGFB1 mRNA expression at 100 mg/kg, po administered once a day for 4 weeks by qRT-PCR analysis; assay type: functional, organism-based
Mus musculus [22] = assay: Anti-hepatic fibrosis activity in MDR2 knockout liver injury mouse model assessed as reduction in MMP2 mRNA expression at 100 mg/kg, po administered once a day for 4 weeks by qRT-PCR analysis; assay type: functional, organism-based
Mus musculus [23] = assay: Anti-hepatic fibrosis activity in MDR2 knockout liver injury mouse model assessed as reduction in CTGF mRNA expression at 100 mg/kg, po administered once a day for 4 weeks by qRT-PCR analysis; assay type: functional, organism-based
Mus musculus [24] = assay: Anti-hepatic fibrosis activity in MDR2 knockout liver injury mouse model assessed as reduction in MMP2 protein expression at 100 mg/kg, po administered once a day for 4 weeks by Western blot analysis; assay type: functional, organism-based
Mus musculus [25] = assay: Anti-hepatic fibrosis activity in MDR2 knockout liver injury mouse model assessed as reduction in TGFbeta1 protein expression at 100 mg/kg, po administered once a day for 4 weeks by Western blot analysis; assay type: functional, organism-based
Mus musculus [26] = assay: Anti-hepatic fibrosis activity in MDR2 knockout liver injury mouse model assessed as reduction in CTGF protein expression at 100 mg/kg, po administered once a day for 4 weeks by Western blot analysis; assay type: functional, organism-based
Mus musculus [27] = assay: Anti-hepatic fibrosis activity in MDR2 knockout liver injury mouse model assessed as reduction in collagen deposition at 100 mg/kg, po administered once a day for 4 weeks by H and E staining analysis; assay type: functional, organism-based
[28] = target: T2, RNA-binding protein EWS (Homo sapiens) (UniProt Q01844); assay: Binding affinity to EWSR1 (unknown origin) in human LX2 cells by streptavidin bead based pull-down assay; assay type: cell-based
T2 sequence (whole entry): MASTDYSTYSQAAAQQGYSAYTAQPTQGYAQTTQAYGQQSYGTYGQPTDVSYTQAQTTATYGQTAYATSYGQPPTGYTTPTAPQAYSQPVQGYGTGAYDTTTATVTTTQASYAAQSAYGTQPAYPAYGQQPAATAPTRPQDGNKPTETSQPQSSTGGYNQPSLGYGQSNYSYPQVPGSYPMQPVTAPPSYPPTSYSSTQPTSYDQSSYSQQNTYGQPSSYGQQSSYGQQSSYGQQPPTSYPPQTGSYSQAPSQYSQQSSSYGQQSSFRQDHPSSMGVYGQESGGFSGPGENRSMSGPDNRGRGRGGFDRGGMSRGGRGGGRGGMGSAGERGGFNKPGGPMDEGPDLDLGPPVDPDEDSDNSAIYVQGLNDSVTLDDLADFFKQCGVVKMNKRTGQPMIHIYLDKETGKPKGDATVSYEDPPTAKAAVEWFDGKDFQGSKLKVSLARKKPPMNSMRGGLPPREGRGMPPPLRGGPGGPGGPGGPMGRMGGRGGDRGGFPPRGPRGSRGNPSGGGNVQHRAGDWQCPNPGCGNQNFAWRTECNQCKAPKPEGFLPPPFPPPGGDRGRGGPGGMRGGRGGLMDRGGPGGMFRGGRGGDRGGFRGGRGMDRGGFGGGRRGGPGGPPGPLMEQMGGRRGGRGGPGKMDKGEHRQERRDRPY

LX-2 [29] = assay: Effect on EWSR1 expression in human LX2 cells at 2.5 to 20 uM; assay type: functional, cell-based; details: dose 2.5-20 µM

T1 sequence (P02452 whole entry): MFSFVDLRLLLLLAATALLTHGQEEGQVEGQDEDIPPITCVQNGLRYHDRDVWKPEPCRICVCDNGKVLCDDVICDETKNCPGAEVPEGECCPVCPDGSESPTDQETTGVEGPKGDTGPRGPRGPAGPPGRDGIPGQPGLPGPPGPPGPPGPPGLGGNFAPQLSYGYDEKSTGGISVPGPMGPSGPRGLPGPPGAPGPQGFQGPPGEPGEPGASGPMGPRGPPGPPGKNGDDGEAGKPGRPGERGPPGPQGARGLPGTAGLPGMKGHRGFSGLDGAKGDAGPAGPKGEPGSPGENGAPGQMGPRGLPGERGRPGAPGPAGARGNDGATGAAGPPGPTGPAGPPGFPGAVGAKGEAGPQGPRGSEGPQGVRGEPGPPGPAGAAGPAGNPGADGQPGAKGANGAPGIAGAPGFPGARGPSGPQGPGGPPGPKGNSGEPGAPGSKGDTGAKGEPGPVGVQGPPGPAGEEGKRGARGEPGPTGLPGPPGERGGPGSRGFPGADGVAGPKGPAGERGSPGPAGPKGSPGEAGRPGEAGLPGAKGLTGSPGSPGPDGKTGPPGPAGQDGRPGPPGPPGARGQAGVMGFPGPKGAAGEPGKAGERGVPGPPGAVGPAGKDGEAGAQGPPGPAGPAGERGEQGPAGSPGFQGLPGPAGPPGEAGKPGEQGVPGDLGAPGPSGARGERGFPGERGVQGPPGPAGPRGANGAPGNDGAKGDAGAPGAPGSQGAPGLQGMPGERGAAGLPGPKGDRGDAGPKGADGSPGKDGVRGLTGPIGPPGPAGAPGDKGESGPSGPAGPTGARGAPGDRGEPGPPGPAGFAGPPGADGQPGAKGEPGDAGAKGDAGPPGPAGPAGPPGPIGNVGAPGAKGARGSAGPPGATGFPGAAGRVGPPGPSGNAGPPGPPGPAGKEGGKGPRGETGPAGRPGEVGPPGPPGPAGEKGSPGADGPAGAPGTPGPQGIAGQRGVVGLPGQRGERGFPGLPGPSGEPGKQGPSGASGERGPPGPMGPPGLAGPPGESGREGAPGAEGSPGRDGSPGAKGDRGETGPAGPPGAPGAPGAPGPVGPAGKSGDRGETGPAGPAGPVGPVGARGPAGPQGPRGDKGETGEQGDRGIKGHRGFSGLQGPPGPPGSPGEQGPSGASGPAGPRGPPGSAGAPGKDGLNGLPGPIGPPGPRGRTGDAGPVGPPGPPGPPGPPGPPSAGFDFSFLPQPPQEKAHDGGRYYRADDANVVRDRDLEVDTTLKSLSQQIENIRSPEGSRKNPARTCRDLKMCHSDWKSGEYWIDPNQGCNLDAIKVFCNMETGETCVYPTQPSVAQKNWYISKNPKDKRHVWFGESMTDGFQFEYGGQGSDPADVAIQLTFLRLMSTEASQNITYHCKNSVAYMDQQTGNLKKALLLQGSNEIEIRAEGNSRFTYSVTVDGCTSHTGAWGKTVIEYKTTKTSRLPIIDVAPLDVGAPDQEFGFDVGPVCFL

## CCCC[C@@H]1[C@H]2CCCN3CCC[C@@H](CN1C(=O)Nc1c(CC)cccc1CC)[C@@H]23
Rattus norvegicus [1]
  Activity: 433.11 µmol/L
Rattus norvegicus [2]
  Activity: 36.5 U/L
Rattus norvegicus [3]
  Activity: 447.83 U/L
[4]
  inhibition: 98.8%
[5]
  inhibition: 99.8%
LX-2 [6]
  Activity: Active
LX-2 [7]
  Activity: Active
LX-2 [8]
  Activity: Active
HSC-T6 [9]
  Activity: Dose-Dependent Effect
HSC-T6 [10]
  Activity: Dose-Dependent Effect
Rattus norvegicus [11]
  Activity: Active
Rattus norvegicus [12]
  Activity: Active
Rattus norvegicus [13]
  Activity: Active
Rattus norvegicus [14]
  Activity: Active
Rattus norvegicus [15]
  Activity: Active
Rattus norvegicus [16]
  Activity: Active
Rattus norvegicus [17]
  Activity: Active
Mus musculus [18]
  Activity: 295.2 U/L
Mus musculus [19]
  Activity: 29.18 µmol/L
Mus musculus [20]
  Activity: Active
Mus musculus [21]
  Activity: Active
Mus musculus [22]
  Activity: Active
Mus musculus [23]
  Activity: Active
Mus musculus [24]
  Activity: Active
Mus musculus [25]
  Activity: Active
Mus musculus [26]
  Activity: Active
Mus musculus [27]
  Activity: Active
[28]
  Activity: inactive
LX-2 [29]
  Activity: inactive
